Measurements reported in patent US20070074295A1 (priority 2000, published 2007).

Test system: TNFα mRNA
Test: RT-PCR for TNFα mRNA in rat prefrontal cortex
Format: in vivo
Settings: acute PCP, single i.p. injection 2 mg/kg, 2 hrs and 24 hrs
Procedure: Four groups of rats were treated with (a) chronic PCP, (b) chronic vehicle (control), (c) chronic PCP plus chronic clozapine (as above) or (d) chronic PCP plus chronic haloperidol (as above). The tissue was processed for RNA extraction and RT-PCP as described above, using primers specific for TNFα mRNA.

**Q.** How did the “levels of TNFα in rat prefrontal cortex” value turn out when `c1ccc(C2(N3CCCCC3)CCCCC2)cc1` [PCP, phencyclidine] was run?
**A.** Its value is “reduced”.
